Measured values from paper PMC6467762 (ACS infectious diseases, 2018).
“Also recorded” adds a separate entry of the source. Read-outs that look alike come from different tables or passages of the source.

Experiments:
[1] = system: P. falciparum line from second round of DSM1 selections (increased dhodh copy number); settings: cited from earlier work
[2] = system: DSM265-resistant P. falciparum Dd2 parasites; experiment: Drug sensitivity of DSM265-resistant Dd2 parasites; type: cell-based, Plasmodium falciparum; settings: DSM265-selected Dd2 mutant lines; values in Table S1 (not available)
P. falciparum sporozoite = settings: cited from earlier work
[3] = system: P. falciparum Dd2 BSmut control; experiment: In vitro 72 h drug susceptibility assay, CRISPR/Cas9 study; type: cell-based; settings: Plasmodium falciparum, DD2|DSM265, read-out: DSM265 EC50
P. falciparum = settings: number of parasites; cited from earlier work
[4] = system: P. falciparum Dd2 R10ClB (DHODH G181C); experiment: P. falciparum growth EC50 determination; type: cell-based; settings: Plasmodium falciparum, DD2|DSM265, read-out: DSM265 EC50
P. falciparum Dd2 WT = experiment: microbe, parasite or virus in culture; type: cell-based; settings: Plasmodium falciparum, DD2|DSM265, read-out: DSM265 EC50
[5] = system: P. falciparum Dd2 R2B (DHODH R265G); experiment: P. falciparum growth EC50 determination; type: cell-based; settings: Plasmodium falciparum, DD2|DSM265, read-out: DSM265 EC50
[6] = system: P. falciparum Dd2 R3B (DHODH E182D); experiment: P. falciparum growth EC50 determination; type: cell-based; settings: Plasmodium falciparum, DD2|DSM265, read-out: DSM265 EC50
P. falciparum Dd2 parent = experiment: In vitro 72 h drug susceptibility assay, CRISPR/Cas9 study; type: cell-based; settings: Plasmodium falciparum, DD2|DSM265, read-out: DSM265 EC50
[7] = system: P. falciparum Dd2^Dhodh C276Y (CRISPR/Cas9-edited clones); experiment: as above; type: cell-based; settings: Plasmodium falciparum, DD2|DSM265, read-out: DSM265 EC50
P. vivax = settings: compared with P. falciparum; cited from earlier work
[8] = system: P. falciparum Dd2 RIAClB (DHODH C276F); experiment: P. falciparum growth EC50 determination; type: cell-based; settings: Plasmodium falciparum, DD2|DSM265, read-out: DSM265 EC50
[9] = neutral pH; cited from earlier work
P. falciparum malaria = settings: cited from earlier work
[10] = system: P. falciparum blood stage; settings: humans; cited from earlier work
[11] = system: P. falciparum Dd2 R1BClA (DHODH L531F); experiment: P. falciparum growth EC50 determination; type: cell-based; settings: Plasmodium falciparum, DD2|DSM265, read-out: DSM265 EC50
[12] = single ascending dose (25–1200 mg), humans; cited from earlier work
PfDHODH = settings: cited from earlier work

For `O=C1C(O)=C([C@H]2CC[C@H](c3ccc(Cl)cc3)CC2)C(=O)c2ccccc21` [atovaquone], the “Sensitivity of DSM1-selected, dhodh-amplified cell line” value [1] is listed as “partial tolerance” and the “Sensitivity of DSM265-resistant parasites (EC50 vs parent Dd2)” value [2] is listed as “retained full sensitivity; also recorded: fully sensitive”.
For `Cc1cc(Nc2ccc(S(F)(F)(F)(F)F)cc2)n2nc(C(C)(F)F)nc2n1` [DSM265, 2-(1,1-difluoroethyl)-5-methyl-[N-[4-(pentafluorosulfanyl)phenyl] 1,2,4]triazolo[1,5-a]pyrimidin-7-amine], the Protection from infection (P. falciparum sporozoite; dosed 3 or 7 days before challenge) is given as “partial protection”, the Protection from infection (P. falciparum sporozoite; single dose of 400 mg given 1 day prior to challenge) is given as “full protection” and the EC50 [3] is given as 5.1 ± 0.31 nM. For the same compound, the “Minimum inoculum of resistance for the emergence of DSM265-resistant parasites” value (P. falciparum) was ≥ 10^5, the EC50 [4] was 150 ± 51 nM and the EC50 (P. falciparum Dd2 WT) was 4.6 ± 1.1 nM. For the same compound, the EC50 [5] was 150 ± 73 nM, the EC50 [6] was 71 ± 13 nM and the EC50 (P. falciparum Dd2 parent) was 4.8 ± 0.86 nM. The EC50 [7] was 120 ± 26 nM, the “Efficacy against P. vivax” value (P. vivax) was “lower” and the EC50 [8] was 170 ± 55 nM. The Solubility limit [9] was ~ 30 μM, the Cure rate (P. falciparum malaria; single dose of 250 mg) was 60% and the “Patients parasite free, extended 28-day endpoint” value (P. falciparum malaria; single dose of 400 mg) was 8/9. The “Efficacy in blood stage human challenge study” value [10] was “demonstrating efficacy”, the EC50 [11] was 110 ± 17 nM and the Safety [12] was “good safety”.
For `C[C@@H]1CC[C@H]2[C@@H](C)C(=O)O[C@@H]3O[C@@]4(C)CC[C@@H]1[C@]32OO4` [artemisinin], the “Sensitivity of DSM265-resistant parasites (EC50 vs parent Dd2)” value [2] was “fully sensitive; also recorded: retained full sensitivity”.
For `Cc1cc(Nc2ccc3ccccc3c2)n2ncnc2n1` [DSM1, 5-methyl-N-(naphthalen-2-yl)-[1,2,4]triazolo[1,5-a]pyrimidin-7-amine], the Mode of inhibition (PfDHODH) is given as “competitive inhibitor of CoQ”.
